Where “and” joins values, the source holds several entries; their conditions need not be identical. Equal entries are not always repeated.
Experiments:
paroxysmal dystonia = conditions: dt^sz mutant hamster; cited from earlier work
[1] = test system: 6 Hz (44 mA) psychomotor seizures; assay: 6 Hz psychomotor seizure test, 44 mA (alone, combination with LEV, isobolographic study); assay type: in vivo, mice; conditions: for ED50: at TPE, read-out: ED50 (95% CI) 44 mA
Description: Test compounds were administered using an optimal fluid volume to body fluid ratio. Test compounds were administered to mice in a volume of 0.01 mL/g of body weight (White H. S., et al., General Principles: Experimental selection, quantification, and evaluation of antiepileptic drugs, in Antiepileptic Drugs, Fourth Edition, […], and B. S. Meldrum, Editors. 1995, Raven Press, Ltd.: New York, pp. 99-110). For subcutaneous (s.c.) administration, the test compounds were administered into a loose fold of skin along the back of the animal except compound 6-b, which was administered orally (p.o). […] The animals were maintained on an adequate diet (Prolab RMH 3000) and allowed free access to food and water, except during the short time they were removed from their cage for testing. Animals newly received in the laboratory were allowed sufficient time to correct for possible food and water restriction incurred during transit before being employed in testing. All mice were housed in plastic cages in specially constructed rooms with controlled humidity, exchange of air and controlled lighting (12 hours on-12 hours off). The animals were housed, fed, and handled in a manner consistent with the recommendations in the National Council Publication, “Guide for the Care and Use of Laboratory Animals”. In the determination of an ED50 or TD50 for each test compound, the first dose administered is usually the same dose as that used in a successful TPE determination. […] Third and fourth doses were selected to produce an evenly spaced dose response line. […] The 6 Hz seizure test is used as a model of pharmacoresistant limbic seizures. […] Focal seizures were induced in mice via corneal stimulation (6 Hz, 0.2 msec rectangular pulse, 3 sec duration; Barton et al. 2001). Mice were tested at either 32 mA or 44 mA. […] The seizures that arise from corneal stimulation in this assay are characterized by a minimal clonic phase followed by stereotyped automatistic behaviors including stun, forelimb clonus, twitching of the vibrissae, and Straub-tail. Animals not displaying these behaviors were considered protected. […] In addition to recording the efficacy and toxicity data for these compounds alone or in combination, both plasma and brain samples were collected from each of the groups for pharmacokinetic/pharmacokinetic analysis. No pharmacokinetic interaction was observed based on compound levels in the plasma and brain samples (data not shown). Isobolographic studies were conducted for the combined administration of Co. […] Studies were conducted according to previously described methods (Madsen et al. 2011). Initial ED50 values were determined for both Co. […] Co. […] Doses used were proportional to calculated ED50 values. […] Experimental treatment doses (see Table 4) were based on theoretical values and adjusted according to observed effects. Experimentally determined ED50 (+SEM) values for each fixed dose-ratio combination were compared to the theoretical values (t-test) for statistical purposes. […] Subsequently, the experimental combined doses were determined for the same paradigms in the 6 Hz seizure test (Table 4 below).

corneal kindled seizures = assay: Mouse corneal kindling model; assay type: in vivo, mice; conditions: Racine score 0-5
Description: After the mice reached a stable kindled state, the test compound or vehicle was administered and, at the previously determined TPE, each animal was given the electrical stimulus indicated above. […] One dose of LEV and two doses of Co.

[2] = Plasma and brain levels (pK/pD analysis); assay type: in vivo, mice; conditions: for concentration at 0.25 h: mouse, subcutaneous
Description: In various tests, animals were sacrificed following testing, and trunk blood and/or brain tissue (whole brains) was collected for quantification of drug levels. Immediately after testing, animals were decapitated and trunk blood was collected into a BD Vacutainer® tube containing K2EDTA and chilled on ice until centrifugation. Following centrifugation (13000-18000 rpm, 5-7 min), the plasma was removed and transferred to a labeled microcentrifuge tube and stored at −80° C. For brain tissue collection, brains were removed immediately following decapitation and flash frozen. The frozen sample was placed in a labeled centrifuge tube and stored at −80° C.
In addition to recording the efficacy and toxicity data for these compounds alone or in combination, both plasma and brain samples were collected from each of the groups for pharmacokinetic/pharmacokinetic analysis.

[3] = test system: 6 Hz (32 mA) psychomotor seizures; assay: 6 Hz psychomotor seizure test, 32 mA (incl. TPE determination); assay type: in vivo, mice; conditions: at TPE; for ED50: Mus musculus, sc, read-out: ED50 (95% CI) 32 mA
Description: Test compounds were administered using an optimal fluid volume to body fluid ratio. Test compounds were administered to mice in a volume of 0.01 mL/g of body weight (White H. S., et al., General Principles: Experimental selection, quantification, and evaluation of antiepileptic drugs, in Antiepileptic Drugs, Fourth Edition, […], and B. S. Meldrum, Editors. 1995, Raven Press, Ltd.: New York, pp. 99-110). For subcutaneous (s.c.) administration, the test compounds were administered into a loose fold of skin along the back of the animal except compound 6-b, which was administered orally (p.o). […] The animals were maintained on an adequate diet (Prolab RMH 3000) and allowed free access to food and water, except during the short time they were removed from their cage for testing. Animals newly received in the laboratory were allowed sufficient time to correct for possible food and water restriction incurred during transit before being employed in testing. All mice were housed in plastic cages in specially constructed rooms with controlled humidity, exchange of air and controlled lighting (12 hours on-12 hours off). The animals were housed, fed, and handled in a manner consistent with the recommendations in the National Council Publication, “Guide for the Care and Use of Laboratory Animals”. In the determination of an ED50 or TD50 for each test compound, the first dose administered is usually the same dose as that used in a successful TPE determination. […] Third and fourth doses were selected to produce an evenly spaced dose response line. […] TPE was determined using the 6 Hz (32 mA) assay. […] The 6 Hz seizure test is used as a model of pharmacoresistant limbic seizures. […] Focal seizures were induced in mice via corneal stimulation (6 Hz, 0.2 msec rectangular pulse, 3 sec duration; Barton et al. 2001). Mice were tested at either 32 mA or 44 mA. […] The seizures that arise from corneal stimulation in this assay are characterized by a minimal clonic phase followed by stereotyped automatistic behaviors including stun, forelimb clonus, twitching of the vibrissae, and Straub-tail. Animals not displaying these behaviors were considered protected.

6 Hz seizures = conditions: dose-dependent manner; cited from earlier work
MES seizures = conditions: in vivo; cited from earlier work
human mGlu2 receptor = biological target: T1, human mGlu2 receptor (Homo sapiens, UniProt Q14416); assay: [35S]GTPγS binding assay, mGluR2 PAM; assay type: biochemical; conditions: maximal % effect relative to control glutamate response; EC20 glutamate; read-out: GTPγS-hmGluR2 PAM Emax
T1 construct: expressed in transfected cells; host or cells: CHO cells
T1 sequence (Q14416 19-872): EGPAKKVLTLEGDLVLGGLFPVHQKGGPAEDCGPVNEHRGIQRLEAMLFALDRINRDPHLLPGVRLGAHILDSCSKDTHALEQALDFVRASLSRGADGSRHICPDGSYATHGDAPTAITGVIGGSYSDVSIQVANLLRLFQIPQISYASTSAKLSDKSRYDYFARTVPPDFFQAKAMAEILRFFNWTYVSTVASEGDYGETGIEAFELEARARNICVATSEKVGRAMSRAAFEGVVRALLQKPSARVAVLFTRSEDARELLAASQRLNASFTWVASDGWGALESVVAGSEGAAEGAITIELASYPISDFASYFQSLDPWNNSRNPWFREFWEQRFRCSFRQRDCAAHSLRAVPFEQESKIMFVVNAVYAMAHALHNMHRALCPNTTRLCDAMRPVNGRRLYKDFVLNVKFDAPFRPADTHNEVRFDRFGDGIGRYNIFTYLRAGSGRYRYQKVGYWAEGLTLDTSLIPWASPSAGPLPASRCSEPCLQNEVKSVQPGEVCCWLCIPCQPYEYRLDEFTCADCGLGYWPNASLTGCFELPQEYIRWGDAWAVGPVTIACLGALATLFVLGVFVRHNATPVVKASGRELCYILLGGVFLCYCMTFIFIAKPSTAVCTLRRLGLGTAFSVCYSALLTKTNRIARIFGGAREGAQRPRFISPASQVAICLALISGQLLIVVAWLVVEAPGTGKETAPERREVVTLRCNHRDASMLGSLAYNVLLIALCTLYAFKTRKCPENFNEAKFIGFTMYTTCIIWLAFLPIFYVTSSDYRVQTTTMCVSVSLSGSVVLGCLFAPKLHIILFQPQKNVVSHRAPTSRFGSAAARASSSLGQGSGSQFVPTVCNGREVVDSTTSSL
Description: The [^35S]GTPγS binding assay is a functional membrane-based assay used to study G-protein coupled receptor (GPCR) function whereby incorporation of a non-hydrolysable form of GTP, [^35S]GTPγS (guanosine 5′-triphosphate, labelled with […] ^35S), is measured.
Cells were then collected by scraping in PBS and cell suspension was centrifuged (10 min at 4000 RPM in benchtop centrifuge). Supernatant was discarded and pellet gently resuspended in 50 mM Tris-HCl, pH 7.4 by mixing with a vortex and pipetting up and down. The suspension was centrifuged at 16,000 RPM (Sorvall RC-5C plus rotor SS-34) for 10 minutes and the supernatant discarded. The pellet was homogenized in 5 mM Tris-HCl, pH 7.4 using an ultra-turrax homogenizer and centrifuged again (18,000 RPM, 20 min, 4° C.). The final pellet was resuspended in 50 mM Tris-HCl, pH 7.4 and stored at-80° C. in appropriate aliquots before use. Protein concentration was determined by the Bradford method (Bio-Rad, USA) with bovine serum albumin as standard.
Measurement of mGluR2 positive allosteric modulatory activity of test compounds was performed as follows. Test compounds and glutamate were diluted in assay buffer containing 10 mM HEPES acid, 10 mM HEPES salt, pH 7.4, 100 mM NaCl, 3 mM MgCl2 and 10 μM GDP. Human mGlu2 receptor-containing membranes were thawed on ice and diluted in assay buffer supplemented with 14 μg/ml saponin. Membranes were pre-incubated with compound alone or together with a predefined (˜EC20) concentration of glutamate (PAM assay) for 30 min at 30° C. After addition of [^35S] GTPγS (f.c. 0.1 nM), assay mixtures were shaken briefly and further incubated to allow [^35S] GTPγS incorporation on activation (30 minutes, 30° C.). Final assay mixtures contained 7 μg of membrane protein in 10 mM HEPES acid, 10 mM HEPES salt, pH 7.4, 100 mM NaCl, 3 mM MgCl2, 10 µM GDP and 2 μg/ml saponin. Total reaction volume was 200 μl. Reactions were terminated by rapid filtration through Unifilter-96 GF/B plates (Perkin Elmer, Massachusetts, USA) using a 96-well filtermate universal harvester. Filters were washed 6 times with ice-cold 10 mM NaH2PO4/10 mM Na2HPO4, pH 7.4. Filters were then air-dried, and 40 μl of liquid scintillation cocktail (Microscint-O) was added to each well. Membrane-bound radioactivity was counted in a Microplate Scintillation and Luminescence Counter from Perkin Elmer.
The concentration-response curves of representative compounds of the present invention-obtained in the presence of EC20 of mGluR2 agonist glutamate to determine positive allosteric modulation (PAM)—were generated using the Lexis software interface (developed at J&J). Data were calculated as % of the control glutamate response, defined as the maximal response that is generated upon addition of glutamate alone. Sigmoid concentration-response curves plotting these percentages versus the log concentration of the test compound were analyzed using non-linear regression analysis. The concentration producing half-maximal effect is then calculated as EC50. The pEC50 values below were calculated as the −log EC50, when the EC50 is expressed in M. Emax is defined as relative maximal effect (i.e. maximal % effect relative to the control glutamate response).

[4] = Mus musculus, sc, compound alone
[5] = Co. No. 2 3 mg/kg combined with LEV 10 mg/kg, 6 Hz 44 mA

In the case of `CCC[C@@H]1CC(=O)N([C@@H](CC)C(N)=O)C1` [Brivaracetam, (2S)-2-[(4R)-oxo-4-propyl-pyrrolidin-1-yl]butanamide], the “effect on severity of dystonia” value (paroxysmal dystonia) is listed as “reduce the severity of dystonia”.
In the case of `FC(F)(F)c1c(N2CCC(c3ccccc3)CC2)ccn2c(CC3CC3)nnc12` [Co. No. 2], the responders at 3 mg/kg ([1]; Mus musculus, sc, 0.25 h, 3 mg/kg s.c., 0.25 h, read-out: # protected/# tested (converted)) is reported as 16.7%, the ED50 [1, 4] is reported as 5.89 mg/kg and the “Maximum Effect (% Protection)” value ([1]; compound alone) is reported as 100%. The “Seizure score (dose) Corneal kindling” value (corneal kindled seizures; 40 mg/kg s.c.) was 3.4, the “Brain (ng/ml) Co. No. 2, individual mice” value [2, 5] was 1120 ng/mL and 1140 ng/mL and 1540 ng/mL and 1020 ng/mL and the “Plasma (ng/ml) Co. No. 2, individual mice” value [2, 5] was 4700 ng/ml and 467 ng/ml and AQL and (>500) ng/ml and 2080 ng/ml and 1830 ng/ml and 386 ng/ml. For the same compound, the concentration at 0.25 h ([2]; brain, 3 mg/kg, Mean Brain Level (non-combination) Co. No. 2, Co. No. 2 3 mg/kg alone) was 1110 ng/mL, the concentration at 0.25 h ([2]; brain, Brain (ng/ml) Co. No. 2, individual mice, Co. No. 2 3 mg/kg combined with LEV 10 mg/kg, 6 Hz 44 mA) was 1310 ng/mL and the concentration at 0.25 h ([2]; brain, Mean Brain Level Co. No. 2, Co. No. 2 3 mg/kg combined with LEV 10 mg/kg) was 1230 ng/mL. The concentration at 0.25 h ([2]; plasma, 3 mg/kg, Mean Plasma Level (non-combination) Co. No. 2, Co. No. 2 3 mg/kg alone) was 1300 ng/mL, the concentration at 0.25 h ([2]; plasma, Mean Plasma Level Co. No. 2, Co. No. 2 3 mg/kg combined with LEV 10 mg/kg) was 1890 ng/mL and the ED50 [3] was 3.83 mg/kg.
For `CC[C@@H](C(N)=O)N1C[C@H](C=C(F)F)CC1=O` [Seletracetam, (2S)-2-[(4S)-4-(2,2,-difluorovinyl)-2-oxo-pyrrolidin-1-yl]butanamide], the “effect on severity of dystonia” value (paroxysmal dystonia) is given as “reduce the severity of dystonia”.
In the case of `N[C@@]1(C(=O)O)CO[C@H]2[C@H](C(=O)O)[C@H]21` [LY379268], the “activity in the 6 Hz model” value (6 Hz seizures) is given as “effective” and the “activity in maximal electroshock (MES) seizure test” value (MES seizures) is given as “ineffective”.
With `FC(F)(F)Cc1nnc2c(Cl)c(N3CCC(F)(c4ccccc4)CC3)ccn12` [Co. No. 11] the Emax (human mGlu2 receptor) was 310%, the ED50 [1, 4] was 31.5 mg/kg and the “Seizure score (dose) Corneal kindling” value (corneal kindled seizures; 100 mg/kg s.c.) was 2.8. The ED50 [3] was 4.77 mg/kg and the “ED50 (95% CI) 32 mA” value ([3]; s.c.) was 9.41 (1.53-15.1) mg/kg.
In the case of `N[C@@]1(C(=O)O)CS[C@H]2[C@H](C(=O)O)[C@H]21` [LY389795], the “activity in the 6 Hz model” value (6 Hz seizures) is given as “effective” and the “activity in maximal electroshock (MES) seizure test” value (MES seizures) is given as “ineffective”.

From patent publication US20250288584A1, “COMBINATIONS COMPRISING POSITIVE ALLOSTERIC MODULATORS OR ORTHOSTERIC AGONISTS OF METABOTROPIC GLUTAMATERGIC RECEPTOR SUBTYPE 2 AND THEIR USE” (JANSSEN PHARMACEUTICA NV, priority 2014, published 2025)
